Results on five molecules are retold here after patent US12428399B2, “Non-hygroscopic crystalline salts of a pyrazole compound, and pharmaceutical compositions and use thereof” (Yissum Research Development Company of the Hebrew …, priority 2019, dated 2025).

Counter-ions that a name gives are not always drawn. Like-named read-outs stand apart in the source and are kept apart here.

A short description of data set [1]: Dynamic vapor sorption (DVS) analysis of salts. It is filed as physicochemical. The note with it: for loss upon drying at 5% RH / gain from 5 to 95% RH / loss from 95 to 5% RH: DVS isotherm graph; for gain from 5 to 95% RH: adsorption cycle; for loss from 95 to 5% RH: desorption cycle. On the procedure: The crystalline adipate, benzoate, and tosylate salts were characterized with XRPD, DSC, TGA, and DVS. The DVS analyses were carried out using TA Instruments Q5000 Dynamic Vapor Sorption analyzer. The instrument was calibrated with standard weights and a sodium bromide standard for humidity.

Data set [2] in a line: Solubility by aliquot addition of test solvent with visual inspection. In kind it is physicochemical. The conditions noted are these: solution from solubility test. From the text: Whether dissolution had occurred was judged by visual inspection after addition of each solvent aliquot.
Data set [3] relates to acute myeloid leukemia (AML). The conditions noted are these: AML mouse models and human-patient-derived xenograph mouse models; cited from earlier work.
Data set [4] in a line: Bulk density of the ditosylate salt. In kind it is physicochemical.
For a further data set, the system named is Myc, MDM2, and MCL1. The conditions noted are these: cited from earlier work.
The subject of data set [5] is Ser 45 β-catenin phosphorylation; p53 and β-catenin protein expression. The note with it: cited from earlier work.
A further data set deals with CK1α (Homo sapiens, UniProt P48729). The note with it: cited from earlier work.
Chain of CK1α (P48729 whole entry): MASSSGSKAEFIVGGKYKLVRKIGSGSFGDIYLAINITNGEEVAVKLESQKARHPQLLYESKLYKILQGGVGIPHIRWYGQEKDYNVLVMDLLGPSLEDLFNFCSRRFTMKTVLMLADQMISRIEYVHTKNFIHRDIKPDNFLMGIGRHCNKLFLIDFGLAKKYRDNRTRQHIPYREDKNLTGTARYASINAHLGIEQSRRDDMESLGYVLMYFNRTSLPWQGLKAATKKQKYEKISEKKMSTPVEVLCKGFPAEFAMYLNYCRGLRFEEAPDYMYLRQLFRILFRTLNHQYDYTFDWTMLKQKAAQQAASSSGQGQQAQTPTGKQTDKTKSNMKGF
Setting [6] is: indicated by DVS isotherm graph.

Take `Cn1ncc(-c2nc(NC3CCC(N)CC3)ncc2Cl)c1CC1CC1` (stereo not drawn) [benzoate salt, (1r,4r)-N^1-(5-chloro-4-(5-(cyclopropylmethyl)-1-methyl-1H-pyrazol-4-yl)pyrimidin-2-yl)cyclohexane-1,4-diamine]: in data set [1], the “loss upon drying at 5% RH” value came out at 0.02%, the “gain from 5 to 95% RH” value amounted to 1.20% and the “loss from 95 to 5% RH” value was 1.30%. In addition, the “pH of Solution” value in data set [2] (listed as Benzoate) stood at 4.31.

`Cl.Cl.Cn1ncc(-c2nc(N[C@H]3CC[C@H](N)CC3)ncc2Cl)c1CC1CC1` [dihydrochloride salt, (1r,4r)-N^1-(5-chloro-4-(5-(cyclopropylmethyl)-1-methyl-1H-pyrazol-4-yl)pyrimidin-2-yl)cyclohexane-1,4-diamine dihydrochloride, reference compound]: in data set [1], the “loss upon drying at 5% RH” value amounted to 1.2%, the “gain from 5 to 95% RH” value was 17% and the “loss from 95 to 5% RH” value is listed as 16%. The hygroscopicity entry in data set [1] (background statement, no method given there) is “highly hygroscopic”. Moreover, in data set [1] (setting [6]), the hygroscopicity entry is “highly hygroscopic”. The “treating acute myeloid leukemia (AML)” value in data set [3] is “effective”. Also, the “pH of Solution” value in data set [2] was determined as 1.55.

For `Cn1ncc(-c2nc(NC3CCC(N)CC3)ncc2Cl)c1CC1CC1` (stereo not drawn) [ditosylate salt, (1r,4r)-N^1-(5-chloro-4-(5-(cyclopropylmethyl)-1-methyl-1H-pyrazol-4-yl)pyrimidin-2-yl)cyclohexane-1,4-diamine], the hygroscopicity result in data set [1] (setting [6]) is recorded as “not hygroscopic”. Moreover, for the setting “25° C./60% RH, 6-Month”, the “Assay by HPLC (as free base)” value was 100.5 % w/w, the “Purity by HPLC” value is given as 99.8 % area, the “Water contectnt by Karl Fisher” value is 0.41 % w/w and the “pTSA content by HPLC” value is 48.6 % w/w. In addition, under “25° C./60% RH, Initial”, the “Assay by HPLC (as free base)” value came out at 100.5 % w/w, the “Purity by HPLC” value turned out to be 99.8 % area, the “Water contectnt by Karl Fisher” value turned out to be 0.41 % w/w and the “pTSA content by HPLC” value came out at 49.9 % w/w. Besides, under “40° C./75% RH, 6-Month”, the “Assay by HPLC (as free base)” value came to 100.3 % w/w, the “Purity by HPLC” value is listed as 99.8 % area, the “Water contectnt by Karl Fisher” value was 0.58 % w/w and the “pTSA content by HPLC” value was found to be 49.5 % w/w. Also, where the note is “40° C./75% RH, Initial”, the “Assay by HPLC (as free base)” value was 100.5 % w/w, the “Purity by HPLC” value was 99.8 % area, the “Water contectnt by Karl Fisher” value worked out at 0.41 % w/w and the “pTSA content by HPLC” value is reported as 49.9 % w/w. Also, the bulk density in data set [4] came out at 0.377 g/mL. For the same molecule, in data set [2], the “pH of Solution” value was 5.82.

Regarding `Cn1ncc(-c2nc(N[C@H]3CC[C@H](N)CC3)ncc2Cl)c1CC1CC1` [the Compound, (1r,4r)-N^1-(5-chloro-4-(5-(cyclopropylmethyl)-1-methyl-1H-pyrazol-4-yl)pyrimidin-2-yl)cyclohexane-1,4-diamine], the “expression of key cancer initiating genes, including Myc, MDM2, and MCL1” value with Myc, MDM2, and MCL1 is “significantly reduces”. Moreover, in data set [5], the “Ser 45 β-catenin phosphorylation” value was “reduces”; the “p53 and β-catenin protein expression” value is listed as “increases”. Also, the CK1α inhibition entry on CK1α was “inhibitor”.

Regarding “(1r,4r)-N^1-(5-chloro-4-(5-(cyclopropylmethyl)-1-methyl-1H-pyrazol-4-yl)pyrimidin-2-yl)cyclohexane-1,4-diamine [adipate salt]”, in data set [1], the “loss upon drying at 5% RH” value amounted to 0.05%, the “gain from 5 to 95% RH” value came to 1.05% and the “loss from 95 to 5% RH” value is recorded as 1.11%. The hygroscopicity result in data set [1] (setting [6]) is on record as “not hygroscopic”. In addition, the “pH of Solution” value in data set [2] is 4.73.
